# From PMC11898958, “Application of Biomimetic Chromatography and QSRR Approach for Characterizing Organophosphate Pesticides” (International Journal of Molecular Sciences, 2025)
# Like-named read-outs stand apart in the source and are kept apart here.
# Tests used:
# [1] = Chromatographic lipophilicity by RP-HPLC on C18 column (CHIC18); type: physicochemical
# Procedure: (§1) Elution was conducted under the following conditions:
# (§2) The injected volume was 10 μL. […] Each sample was analyzed three times.
# [2] = Affinity to phospholipids by IAM-HPLC (IAM.PC.DD2 column); type: physicochemical
# Procedure: as §1, §2
# human serum albumin = human serum albumin (Homo sapiens, UniProt P02768)
# human serum albumin, sequence (P02768 25-609): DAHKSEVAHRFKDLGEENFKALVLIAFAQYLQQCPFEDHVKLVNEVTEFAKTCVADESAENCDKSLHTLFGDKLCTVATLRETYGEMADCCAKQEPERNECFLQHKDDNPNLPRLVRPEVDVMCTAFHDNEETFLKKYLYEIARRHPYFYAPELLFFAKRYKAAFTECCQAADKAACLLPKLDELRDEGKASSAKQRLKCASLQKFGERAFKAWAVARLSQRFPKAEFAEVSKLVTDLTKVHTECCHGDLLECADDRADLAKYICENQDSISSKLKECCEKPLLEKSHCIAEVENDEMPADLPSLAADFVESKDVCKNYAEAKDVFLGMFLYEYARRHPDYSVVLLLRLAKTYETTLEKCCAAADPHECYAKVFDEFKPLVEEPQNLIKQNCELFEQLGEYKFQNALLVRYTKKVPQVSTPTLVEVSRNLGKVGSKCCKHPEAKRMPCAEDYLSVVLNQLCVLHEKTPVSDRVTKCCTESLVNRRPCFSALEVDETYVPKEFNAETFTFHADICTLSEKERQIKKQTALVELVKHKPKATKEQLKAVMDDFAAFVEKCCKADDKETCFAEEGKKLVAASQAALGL
# Procedure: Each column was equipped with an appropriate precolumn. Elution was conducted under the following conditions:
# [3] = C18 XTERRA RP18 column, acetonitrile gradient, 50 mM ammonium acetate pH 7.4, 30 °C
# [4] = IAM.PC.DD2 column, acetonitrile gradient, 50 mM ammonium acetate pH 7.4, 30 °C
# [5] = HSA column, isopropanol gradient, 50 mM ammonium acetate pH 7.4, 30 °C
Compound,"CHIC18 (chromatographic hydrophobicity index of RP-HPLC) [1, 3]","CHIIAM (chromatographic hydrophobicity index of IAM-HPLC) [2, 4]",%HSA (binding to HSA) (human serum albumin; [5]) [%],LogkHSA (chromatographically determined affinity to HSA-HPLC) (human serum albumin; [5]),also measured
CCOP(=S)(OCC)SCn1nnc2ccccc2c1=O [Azinphos-ethyl],95.69,37.81,92.07,1.01,
COP(=S)(OC)SCn1nnc2ccccc2c1=O [Azinphos-methyl],83.47,33.18,86.70,0.78,
CCOP(=O)(OCC)OC(=CCl)c1ccc(Cl)cc1Cl [Chlorfenvinphos],97.18,38.13,85.54,0.74,
CCOP(=S)(OCC)Oc1cc(C)nc(C(C)C)n1 [Diazinon],105.98,39.34,81.33,0.62,"CHIC18 (chromatographic hydrophobicity index of RP-HPLC) ([1]; C18 XTERRA RP18 column, acetonitrile gradient, 50 mM ammonium acetate pH 7.4, 30 °C, listed as diazinon): remarkably high lipophilicity"
COP(=O)(OC)OC=C(Cl)Cl [Dichlorvos],23.17,16.56,65.86,0.27,"CHIC18 (chromatographic hydrophobicity index of RP-HPLC) ([1]; C18 XTERRA RP18 column, acetonitrile gradient, 50 mM ammonium acetate pH 7.4, 30 °C, listed as dichlorvos): low lipophilicity"
CCOP(=S)(OCC)SCCSCC [Disulfoton],108.97,42.34,92.86,1.06,"CHIC18 (chromatographic hydrophobicity index of RP-HPLC) ([1]; C18 XTERRA RP18 column, acetonitrile gradient, 50 mM ammonium acetate pH 7.4, 30 °C, listed as disulfoton): remarkably high lipophilicity; CHIIAM (chromatographic hydrophobicity index of IAM-HPLC) ([2]; IAM.PC.DD2 column, acetonitrile gradient, 50 mM ammonium acetate pH 7.4, 30 °C, listed as disulfoton): highest CHIIAM values"
CCCSP(=O)(OCC)SCCC [Ethoprophos],,,,,"CHIC18 (chromatographic hydrophobicity index of RP-HPLC) ([1]; pH 7.4): 88.39; CHIIAM (chromatographic hydrophobicity index of IAM-HPLC) ([2]; pH 7.4): 32.41; %HSA (binding to HSA) (human serum albumin; human, pH 7.4): 28.35%; LogkHSA (chromatographically determined affinity to HSA-HPLC) (human serum albumin; human, pH 7.4): −0.41"
COP(=S)(OC)Oc1ccc([N+](=O)[O-])c(C)c1 [Fenitrothion],93.49,38.10,91.78,1.00,
COP(=S)(OC)Oc1ccc(SC)c(C)c1 [Fenthion],102.16,42.37,96.04,1.29,"CHIIAM (chromatographic hydrophobicity index of IAM-HPLC) ([2]; IAM.PC.DD2 column, acetonitrile gradient, 50 mM ammonium acetate pH 7.4, 30 °C, listed as fenthion): highest CHIIAM values; %HSA (binding to HSA) (human serum albumin; HSA column, isopropanol gradient, 50 mM ammonium acetate pH 7.4, 30 °C, listed as fenthion): highest protein-binding capacity"
CCOC(=O)N(C)C(=O)CSP(=S)(OCC)OCC [Mecarbam],97.09,35.77,74.23,0.44,
COP(=O)(OC)OC(Br)C(Cl)(Cl)Br (centres unmarked) [Naled],31.32,29.79,43.86,−0.11,"CHIC18 (chromatographic hydrophobicity index of RP-HPLC) ([1]; C18 XTERRA RP18 column, acetonitrile gradient, 50 mM ammonium acetate pH 7.4, 30 °C, listed as naled): low lipophilicity"
CCOP(=O)(OCC)Oc1ccc([N+](=O)[O-])cc1 [Paraoxon-ethyl],72.54,25.34,27.68,−0.42,
COP(=S)(OC)Oc1ccc([N+](=O)[O-])cc1 [Parathion-methyl],88.75,35.54,87.94,0.83,
CCOP(=S)(OCC)SCSCC [Phorate],108.36,42.43,93.08,1.07,"CHIIAM (chromatographic hydrophobicity index of IAM-HPLC) ([2]; IAM.PC.DD2 column, acetonitrile gradient, 50 mM ammonium acetate pH 7.4, 30 °C, listed as phorate): highest CHIIAM values"
COP(=S)(OC)SCN1C(=O)c2ccccc2C1=O [Phosmet],85.39,33.89,87.23,0.80,
CCOP(=S)(OCC)Oc1cnc2ccccc2n1 [Quinalphos],101.01,39.40,91.23,0.97,"CHIC18 (chromatographic hydrophobicity index of RP-HPLC) ([1]; C18 XTERRA RP18 column, acetonitrile gradient, 50 mM ammonium acetate pH 7.4, 30 °C, listed as quinalphos): remarkably high lipophilicity"
Chlorpyrifos-oxon,39.17,24.96,,0.68,%HSA (binding to HSA) (human serum albumin; pH 7.4): 83.49%
